Data reported in ChEMBL document CHEMBL1201862, “PubChem BioAssay data set” (2004).
The source made the active and inactive calls.

Columns and labels:
[1] = target: Lysine-specific demethylase 4A (Homo sapiens, UniProt O75164); experiment: JMJD2A histone demethylase inhibitors, dose response, selectivity assay for GASC-1 inhibitor project, biochemical, DELFIA europium, cherry-picked samples (AID 488840)
[2] = target: T1, Alkaline phosphatase, tissue-nonspecific isozyme (Homo sapiens, UniProt P05186); experiment: TNAP enzyme inhibition by screening hits, dose response, selectivity assay for mouse IAP inhibitor project, biochemical, human TNAP, uHTS hits (AID 488906); format: functional
T1 sequence (P05186 whole entry): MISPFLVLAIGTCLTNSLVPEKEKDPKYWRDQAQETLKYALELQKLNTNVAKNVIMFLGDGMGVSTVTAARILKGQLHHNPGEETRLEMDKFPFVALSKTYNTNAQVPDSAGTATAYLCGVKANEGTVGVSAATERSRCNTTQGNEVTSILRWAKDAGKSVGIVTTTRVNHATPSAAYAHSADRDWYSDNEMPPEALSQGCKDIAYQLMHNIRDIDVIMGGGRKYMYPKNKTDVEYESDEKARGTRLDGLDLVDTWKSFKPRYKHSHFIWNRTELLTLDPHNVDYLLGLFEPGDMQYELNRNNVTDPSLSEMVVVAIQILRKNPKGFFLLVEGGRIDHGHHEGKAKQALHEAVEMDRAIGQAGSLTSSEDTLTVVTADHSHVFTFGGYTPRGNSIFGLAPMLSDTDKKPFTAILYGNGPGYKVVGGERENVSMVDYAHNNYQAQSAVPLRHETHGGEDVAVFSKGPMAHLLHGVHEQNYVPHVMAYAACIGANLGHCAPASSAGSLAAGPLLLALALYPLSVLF

Hexokinase HKDC1 = target: T2, Hexokinase HKDC1 (Homo sapiens, UniProt Q2TB90); experiment: HKDC1 hexokinase inhibitors, dose response, biochemical, W721R variant (AID 504729); format: functional
T2 sequence (Q2TB90 whole entry): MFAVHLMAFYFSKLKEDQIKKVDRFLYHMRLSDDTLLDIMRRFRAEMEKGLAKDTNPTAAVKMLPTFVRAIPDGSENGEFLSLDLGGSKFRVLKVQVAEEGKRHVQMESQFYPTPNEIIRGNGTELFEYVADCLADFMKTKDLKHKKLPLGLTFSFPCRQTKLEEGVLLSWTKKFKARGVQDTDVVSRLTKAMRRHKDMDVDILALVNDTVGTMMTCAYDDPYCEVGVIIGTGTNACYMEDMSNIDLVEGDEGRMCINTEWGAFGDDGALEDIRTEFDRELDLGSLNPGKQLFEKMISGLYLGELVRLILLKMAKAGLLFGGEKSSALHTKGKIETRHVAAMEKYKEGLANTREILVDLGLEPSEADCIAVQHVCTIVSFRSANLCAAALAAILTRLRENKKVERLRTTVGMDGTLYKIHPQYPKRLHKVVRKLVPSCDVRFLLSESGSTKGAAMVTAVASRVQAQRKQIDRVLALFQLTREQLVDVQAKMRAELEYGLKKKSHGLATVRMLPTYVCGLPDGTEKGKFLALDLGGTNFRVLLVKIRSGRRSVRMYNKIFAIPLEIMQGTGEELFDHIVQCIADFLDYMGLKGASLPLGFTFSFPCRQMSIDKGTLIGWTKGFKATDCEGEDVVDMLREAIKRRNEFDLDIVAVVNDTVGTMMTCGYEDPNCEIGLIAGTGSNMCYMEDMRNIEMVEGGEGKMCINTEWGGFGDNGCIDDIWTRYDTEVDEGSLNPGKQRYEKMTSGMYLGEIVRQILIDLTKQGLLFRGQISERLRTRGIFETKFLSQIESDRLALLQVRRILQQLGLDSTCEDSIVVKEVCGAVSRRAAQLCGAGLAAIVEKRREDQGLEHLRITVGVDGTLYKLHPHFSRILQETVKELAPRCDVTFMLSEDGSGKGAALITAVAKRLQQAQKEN

[3] = target: T3, Intestinal-type alkaline phosphatase (Mus musculus, UniProt P24822); experiment: PubChem AID 488785; format: functional
[4] = target: T4, Intestinal-type alkaline phosphatase (Homo sapiens, UniProt P09923); experiment: inhibition of human intestinal alkaline phosphatase – biochemical, dose response (AID 488876); format: functional
Streptococcus = experiment: Group A Streptococcus viability loss, dose response, counter-screen for streptokinase expression inhibitor project, luminescence, BacTiterGlo (AID 1915); format: functional, organism-based;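 also: potency for reduction of bacterial viability or growth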
[5] = target: T5, Heat shock factor protein 1 (Mus musculus, UniProt P38532); experiment: inhibition of MG132-induced HSE-luciferase signal, confirmation, cell-based, NIH3T3, luminescence, dose retest (AID 2382); format: functional;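 also: NIH3T3 fibroblasts with HSF1-driven luciferase reporter stressed by proteasome inhibitor MG132; luminescence from HSF1-driven luciferase expression after 8 hours of MG132 stress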
T5 sequence (P38532 whole entry): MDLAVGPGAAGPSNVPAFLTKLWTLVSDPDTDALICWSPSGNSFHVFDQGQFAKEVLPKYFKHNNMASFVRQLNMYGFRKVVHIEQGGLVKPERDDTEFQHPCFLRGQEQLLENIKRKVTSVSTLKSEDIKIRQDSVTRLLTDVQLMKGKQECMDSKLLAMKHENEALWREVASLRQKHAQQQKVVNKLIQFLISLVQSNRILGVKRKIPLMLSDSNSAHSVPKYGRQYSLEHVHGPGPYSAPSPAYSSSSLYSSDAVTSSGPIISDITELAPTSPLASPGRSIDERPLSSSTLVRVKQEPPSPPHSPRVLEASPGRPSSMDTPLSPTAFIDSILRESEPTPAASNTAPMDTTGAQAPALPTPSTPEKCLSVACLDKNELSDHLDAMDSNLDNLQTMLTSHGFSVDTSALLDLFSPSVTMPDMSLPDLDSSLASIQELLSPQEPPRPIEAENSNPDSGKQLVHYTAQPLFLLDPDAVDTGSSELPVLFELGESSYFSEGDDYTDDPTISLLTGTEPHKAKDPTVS

[6] = target: T3, Intestinal-type alkaline phosphatase; experiment: PubChem AID 488874; format: functional
[7] = target: T4, Intestinal-type alkaline phosphatase; experiment: human IAP activators, dose response, biochemical, luminescent, uHTS hits, set 2 (AID 488817); format: functional;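 also: potency of activators that raise enzyme activity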
Albumin = Albumin (Bos taurus, UniProt P02769); experiment: Counterscreen for inhibitors of T-cell receptor (TCR)-CD3 interaction: Fluorescence-based biochemical high throughput dose response assay to identify inhibitors of T-cell receptor (TCR)-CD3 interaction using a TAMRA-labeled BSA probe.; format: functional
[8] = target: T1, Alkaline phosphatase, tissue-nonspecific isozyme; experiment: TNAP enzyme activators, dose response, selectivity assay for human IAP activator project, biochemical, TNAP isozyme, human IAP uHTS hits (AID 488886); format: functional;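 also: potency of compounds raising TNAP activity as a selectivity check on IAP activators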
[9] = system: Streptococcus sp. 'group A'; experiment: growth inhibition of control SK(-) GAS strain, dose response, counter-screen for streptokinase expression inhibitor project, luminescence, kanamycin, BacTiterGlo, confirmation (AID 1900); format: functional, organism-based
Nonstructural protein 1 = Nonstructural protein 1 (Influenza A virus, UniProt Q194T2); format: functional, Influenza A virus (A/California/07/2009(H1N1))
[10] = target: T4, Intestinal-type alkaline phosphatase; experiment: human intestinal alkaline phosphatase activators, dose response, biochemical, luminescence, uHTS hits (AID 463120); format: functional

T4 sequence (P09923 whole entry): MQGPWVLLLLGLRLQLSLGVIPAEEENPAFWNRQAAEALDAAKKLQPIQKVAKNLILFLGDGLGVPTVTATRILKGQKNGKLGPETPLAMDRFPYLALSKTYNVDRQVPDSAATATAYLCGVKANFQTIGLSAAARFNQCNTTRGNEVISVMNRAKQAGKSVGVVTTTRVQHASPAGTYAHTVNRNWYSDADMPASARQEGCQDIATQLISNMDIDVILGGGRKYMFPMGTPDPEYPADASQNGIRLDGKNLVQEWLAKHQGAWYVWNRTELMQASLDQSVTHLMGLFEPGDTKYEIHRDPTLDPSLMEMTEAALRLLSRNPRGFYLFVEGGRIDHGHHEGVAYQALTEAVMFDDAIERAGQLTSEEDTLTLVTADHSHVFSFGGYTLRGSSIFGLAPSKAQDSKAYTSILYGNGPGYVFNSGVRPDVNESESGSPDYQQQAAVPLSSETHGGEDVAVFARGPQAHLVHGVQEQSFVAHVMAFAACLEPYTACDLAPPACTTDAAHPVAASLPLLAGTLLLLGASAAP
T3 sequence (P24822 whole entry): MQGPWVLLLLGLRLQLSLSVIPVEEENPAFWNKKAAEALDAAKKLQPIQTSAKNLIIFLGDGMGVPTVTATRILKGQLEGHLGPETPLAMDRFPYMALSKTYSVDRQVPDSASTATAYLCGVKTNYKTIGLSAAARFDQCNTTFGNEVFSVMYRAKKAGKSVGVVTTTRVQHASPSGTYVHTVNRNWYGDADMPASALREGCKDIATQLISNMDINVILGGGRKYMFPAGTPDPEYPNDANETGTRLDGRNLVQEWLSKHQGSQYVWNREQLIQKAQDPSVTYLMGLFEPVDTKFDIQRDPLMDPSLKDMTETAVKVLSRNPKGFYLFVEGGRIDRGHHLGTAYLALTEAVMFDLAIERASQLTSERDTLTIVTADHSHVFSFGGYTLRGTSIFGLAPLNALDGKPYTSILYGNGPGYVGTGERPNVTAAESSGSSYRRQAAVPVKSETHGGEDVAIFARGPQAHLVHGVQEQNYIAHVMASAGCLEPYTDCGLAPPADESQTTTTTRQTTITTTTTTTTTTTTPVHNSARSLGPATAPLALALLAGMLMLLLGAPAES
Chain of Lysine-specific demethylase 4A (O75164 whole entry): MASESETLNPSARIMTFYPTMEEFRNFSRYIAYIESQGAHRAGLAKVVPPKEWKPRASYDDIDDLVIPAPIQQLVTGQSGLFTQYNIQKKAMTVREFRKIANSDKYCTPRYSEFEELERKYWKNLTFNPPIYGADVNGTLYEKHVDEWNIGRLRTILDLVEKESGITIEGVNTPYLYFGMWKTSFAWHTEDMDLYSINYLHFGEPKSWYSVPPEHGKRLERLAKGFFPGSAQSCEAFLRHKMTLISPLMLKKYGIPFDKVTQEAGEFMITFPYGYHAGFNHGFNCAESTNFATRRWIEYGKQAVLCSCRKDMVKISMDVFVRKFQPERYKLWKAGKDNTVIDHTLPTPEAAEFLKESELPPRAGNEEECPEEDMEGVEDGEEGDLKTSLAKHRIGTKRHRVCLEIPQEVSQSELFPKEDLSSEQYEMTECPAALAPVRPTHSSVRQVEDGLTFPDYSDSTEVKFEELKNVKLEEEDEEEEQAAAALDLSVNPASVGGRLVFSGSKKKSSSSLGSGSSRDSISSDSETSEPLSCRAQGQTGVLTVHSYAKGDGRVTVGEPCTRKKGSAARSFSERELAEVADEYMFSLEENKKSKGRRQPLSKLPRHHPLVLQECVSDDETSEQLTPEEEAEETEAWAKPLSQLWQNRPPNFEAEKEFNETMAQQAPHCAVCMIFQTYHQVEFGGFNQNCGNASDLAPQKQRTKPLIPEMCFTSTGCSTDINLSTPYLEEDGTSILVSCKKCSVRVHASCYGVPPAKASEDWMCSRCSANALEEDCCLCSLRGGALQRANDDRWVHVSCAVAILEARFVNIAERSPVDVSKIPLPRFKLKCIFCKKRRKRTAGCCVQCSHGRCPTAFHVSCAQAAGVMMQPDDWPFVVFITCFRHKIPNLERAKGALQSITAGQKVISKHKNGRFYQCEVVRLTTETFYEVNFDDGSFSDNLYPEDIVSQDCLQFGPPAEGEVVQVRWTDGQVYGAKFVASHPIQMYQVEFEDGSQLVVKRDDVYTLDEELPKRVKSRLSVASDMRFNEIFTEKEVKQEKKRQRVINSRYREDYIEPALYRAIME
Chain of Nonstructural protein 1 (Q194T2 whole entry): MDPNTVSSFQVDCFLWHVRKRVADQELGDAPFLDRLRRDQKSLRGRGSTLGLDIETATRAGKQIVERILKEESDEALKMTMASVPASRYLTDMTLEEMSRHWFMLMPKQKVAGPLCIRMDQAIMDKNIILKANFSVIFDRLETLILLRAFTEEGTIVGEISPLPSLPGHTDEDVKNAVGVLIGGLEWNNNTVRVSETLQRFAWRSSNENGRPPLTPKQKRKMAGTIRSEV
Chain of Albumin (P02769 whole entry): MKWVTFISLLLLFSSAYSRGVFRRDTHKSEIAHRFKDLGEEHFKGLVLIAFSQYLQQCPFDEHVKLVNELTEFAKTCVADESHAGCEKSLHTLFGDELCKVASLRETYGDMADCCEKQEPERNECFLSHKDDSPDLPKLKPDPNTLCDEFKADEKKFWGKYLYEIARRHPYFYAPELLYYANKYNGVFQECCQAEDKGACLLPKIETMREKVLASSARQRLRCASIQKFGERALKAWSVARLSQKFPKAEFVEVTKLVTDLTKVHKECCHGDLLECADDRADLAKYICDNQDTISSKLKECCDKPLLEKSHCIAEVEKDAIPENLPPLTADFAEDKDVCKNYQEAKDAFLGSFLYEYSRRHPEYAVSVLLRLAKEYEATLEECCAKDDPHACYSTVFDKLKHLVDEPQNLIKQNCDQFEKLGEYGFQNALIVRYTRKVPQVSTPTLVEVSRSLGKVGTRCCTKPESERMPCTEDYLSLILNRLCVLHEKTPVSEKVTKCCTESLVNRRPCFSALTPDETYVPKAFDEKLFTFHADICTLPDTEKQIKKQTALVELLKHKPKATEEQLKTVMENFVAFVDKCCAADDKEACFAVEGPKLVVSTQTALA

Compound: CCC(C(=O)NCCCc1ccccc1)c1ccccc1 (centres undefined)
- AC50 [1]: 3.73 µM (active)

Compound: NS(=O)(=O)c1ccc(N/N=C2\C(=O)Nn3c2nc2c(c3=O)CCCC2)cc1
- IC50 [2]: 21.2 µM (active)
- IC50 (Hexokinase HKDC1): 13.2 µM (active)
- IC50 [3]: 9.28 µM (active)
- IC50 [4]: 23.6 µM (active)

Compound: CCOC(=O)c1c(C)[nH]c(C(=O)N/N=C/c2cc([N+](=O)[O-])ccc2O)c1C
- EC50 (Streptococcus): 2.97 µM (active)
- EC50 [5]: 0.86 µM (active)
- IC50 [6]: > 100 µM (inactive)
- EC50 [7]: 11.4 µM (active)
- IC50 (Albumin): > 94.1 µM (inactive)
- EC50 [8]: 22.3 µM (active)
- EC50 [9]: 2.33 µM (active)
- IC50 (Nonstructural protein 1): 44 µM (active)
- EC50 [10]: 12.1 µM (active)
